Assays:
CHRM2 = biological target: T1, CHRM2 (Homo sapiens, UniProt P08172); assay: Agonist-induced exocytosis of granzyme B, sandwich ELISA (Example 9); type: cell-based; settings: agonist 10 uM, 60 minutes
T1 construct: the entire human GPCR; mouse immunoglobulin kappa signal peptide (N); expressed in transfected cells
T1 sequence (P08172 2-466): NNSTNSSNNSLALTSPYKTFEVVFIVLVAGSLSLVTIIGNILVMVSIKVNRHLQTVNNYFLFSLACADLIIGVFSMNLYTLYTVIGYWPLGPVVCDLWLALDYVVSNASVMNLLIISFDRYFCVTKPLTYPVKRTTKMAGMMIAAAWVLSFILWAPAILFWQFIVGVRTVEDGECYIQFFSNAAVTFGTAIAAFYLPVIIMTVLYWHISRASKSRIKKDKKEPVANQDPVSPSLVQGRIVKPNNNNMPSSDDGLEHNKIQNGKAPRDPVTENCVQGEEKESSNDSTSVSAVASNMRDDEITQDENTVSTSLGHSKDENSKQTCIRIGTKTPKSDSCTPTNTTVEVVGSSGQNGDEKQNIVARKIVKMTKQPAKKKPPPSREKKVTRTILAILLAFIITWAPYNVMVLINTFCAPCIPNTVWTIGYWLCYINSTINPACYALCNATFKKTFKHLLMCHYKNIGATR
Text: Human granzyme B was selected as reporter, chimeric promoter of hCMV-MoLV5′LTR as promoter for reporter expression, RBL-2H3 as hemopoyetic cells with professional regulated exocytosis and several GPCRs as exocytosis modulators under the control of Moloney Leukaemia virus 5′-LTR (MoMLV5′LTR, SEQ ID NO:3) as promoter for expression of exocytosis modulators. […] Vectors for expression of granzyme B had the chimeric promoter of hCMV-MoLV5′LTR-GranzymeB-IRES-NGFR with hygromycin resistance for stable transfections. Vectors for GPCR were electroporated first, cells were selected with neomycin at 500 ug/mL for about two weeks and cells were analysed by flow cytometry (Guava Technologies, USA) with anti-cmyc tag antibody (anti-cmyc-FITC, clone 9E10, Sigma-Aldrich, USA) for surface expression. Positive cells were separated by magnetic separation using anti-cmyc monoclonal antibody conjugated to biotin (Miltenyi Biotec, Germany) and streptavidin-MACS (Miltenyi Biotec, Germany). After growing positive fraction of cells was again analysed by flow cytometry with the anti-cmyc tag antibody. Positive cells were individually electroporated with the vector for expression human granzyme B using a microporator (Digital Bio Technology, South Korea) and after 48 hours hygromycin at 1500 ug/mL and neomycin at 500 ug/mL were added to culture for selection. After selection for about 2 weeks cells were analysed by flow cytometry (Guava Technologies, USA) with an antibody against NGFR coupled to FITC. Positive population where magnetically separated by MACS using anti-NGFR-MACS sup.R (Miltenyi Biotec, Germany). Sorted populations were again analysed again by flow cytometry to check both the expression of the GPCR with the anti-cmyc tag antibody and with anti-NGFR antibody to check granzyme B expression. […] GPCRs included were: SSTR2 and CHRM2 as alpha-i coupled GPCRs; AGTR1 and bradykinin type B1 receptor (BDKRB1) as alpha-q coupled GPCRs and AVPR2 as alpha-s coupled GPCR. […] Cells were seeded the night before experiment at 100.000 cells per well of a 96-well microplate in 100 uL of complete cell culture medium. Next day cells were washed with HBSS buffer and incubated with the ligand (agonist) at 10 uM of each GPCR in 30 uL of HBSS buffer at 37 Celsius degrees for 60 minutes and after centrifugation at 400 g for 5 minutes supernatants were analysed for human granzyme B protein by a sandwich ELISA specific for human granzyme B (Ucytech, Netherlands).

hIL8 receptor (hIL8RA) = biological target: T2, hIL8 receptor (hIL8RA) (Homo sapiens, UniProt P25024); assay: Multiplex assay, Sensor A channel (hIL8RA and human granzyme A) (Example 14); type: cell-based; settings: Condition 4: Sensor A 12500 + Sensor B 5000 cells, carbachol 10 uM, no IL8, granzyme A substrate 1 uM
T2 construct: the entire human GPCR; mouse immunoglobulin kappa signal peptide (N); expressed in transfected cells
T2 sequence (P25024 3-350 limits assumed): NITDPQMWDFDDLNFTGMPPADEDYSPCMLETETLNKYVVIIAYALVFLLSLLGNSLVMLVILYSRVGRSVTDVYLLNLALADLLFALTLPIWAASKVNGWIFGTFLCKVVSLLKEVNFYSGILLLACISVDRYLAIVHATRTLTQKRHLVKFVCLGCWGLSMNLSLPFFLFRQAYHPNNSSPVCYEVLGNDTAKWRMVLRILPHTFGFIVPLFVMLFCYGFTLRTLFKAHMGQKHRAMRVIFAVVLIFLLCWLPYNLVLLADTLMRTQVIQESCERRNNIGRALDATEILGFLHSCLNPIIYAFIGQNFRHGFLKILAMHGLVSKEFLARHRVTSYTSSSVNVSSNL
Text: The principle of multiplex reactions is illustrated in FIG. 5. RBL2H3 cells were stably transfected with a pair of a GPCR as exocytosis modulator and a granzyme as a granule stored reporter as described in example 9. Combinations included were: hIL8 receptor (hIL8RA) and human granzyme A (Sensor A) and CHRM2 and granzyme B expressing cells of example #12 (Sensor B). Human IL8 was used as agonist of hll_8R while carbachol was used as CHRM2 agonist. […] As both substrates uses the same pair of fluorophore (FAM) and quencher (TAMRA) only one substrate could be added to reaction vessel for specific detection at 535 nm after excitation at 485 nm. […] Sensors, agonists and substrates were mixed in a total volume of 20 uL of HBSS in a black walled 384 well microplate and the microplate was incubated at 37 Celsius degrees in a BMG-Labtech microplate fluorimeter and read at 0, 15, 30, 45 and 60 minutes.

C[N+](C)(C)CCOC(N)=O [Carbachol, carbachol]
Absorbance at maximal dilution of ELISA tested (CHRM2; 100.000 cells, dilution 2250, after subtraction of 0.2 blank): 0.6 | Sensitivity (minimal amount of cells needed) (CHRM2; granzyme B ELISA): <150 cells | Signal to background at 30 min (hIL8 receptor (hIL8RA)): 0.78

From patent US9347942B2, “Ultrasensitive cell based sensors and uses thereof” (CANVAX BIOTECH SL, priority 2010, dated 2016)
